Data reported in ChEMBL document CHEMBL1201862, “PubChem BioAssay data set” (2004).
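A five-concentration, 48-hour dose response in 96-well plates underlies each endpoint, interpolated linearly between surrounding concentrations. Abbreviation: GI50, concentration required for 50% inhibition of growth.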 Activity calls are given as the source filed them. No stated cut-off is given here; in the data, active = GI50 up to about 1.1 µM and inactive = higher.

Legend:
Experiment in all cases: NCI anticancer screen, dose series, 48 h
SNB-75 = tested on: SNB-75
U-251 = tested on: U-251
HCT-15 = tested on: HCT-15
MDA-MB-231 = tested on: MDA-MB-231
SF-268 = tested on: SF-268
DU-145 = tested on: DU-145
UACC-257 = tested on: UACC-257
MDA-N = tested on: MDA-N
HT-29 = tested on: HT-29
UO-31 = tested on: UO-31
K562 = tested on: K562
A549 = tested on: A549
OVCAR-5 = tested on: OVCAR-5
RXF 393 = tested on: RXF 393
KM12 = tested on: KM12
COLO 205 = tested on: COLO 205
SR = tested on: SR
SW-620 = tested on: SW-620
OVCAR-4 = tested on: OVCAR-4
NCI-H522 = tested on: NCI-H522
RPMI-8226 = tested on: RPMI-8226
TK-10 = tested on: TK-10
NCI-H460 = tested on: NCI-H460
SK-MEL-28 = tested on: SK-MEL-28
EKVX = tested on: EKVX
SF-539 = tested on: SF-539
Malme-3M = tested on: Malme-3M
NCI-H23 = tested on: NCI-H23
MDA-MB-435 = tested on: MDA-MB-435
HL-60 = tested on: HL-60
CCRF-CEM = tested on: CCRF-CEM
SK-MEL-2 = tested on: SK-MEL-2
SF-295 = tested on: SF-295
Hs-578T = tested on: Hs-578T
SNB-19 = tested on: SNB-19
M14 = tested on: M14
ACHN = tested on: ACHN
SN12C = tested on: SN12C
LOX IMVI = tested on: LOX IMVI
HOP-92 = tested on: HOP-92
NCI/ADR-RES = tested on: NCI/ADR-RES
MOLT-4 = tested on: MOLT-4
HCT-116 = tested on: HCT-116
PC-3 = tested on: PC-3
UACC-62 = tested on: UACC-62
OVCAR-8 = tested on: OVCAR-8
MCF7 = tested on: MCF7
786-0 = tested on: 786-0
IGROV-1 = tested on: IGROV-1
SK-MEL-5 = tested on: SK-MEL-5
A498 = tested on: A498
CAKI-1 = tested on: CAKI-1
OVCAR-3 = tested on: OVCAR-3
SK-OV-3 = tested on: SK-OV-3
NCI-H226 = tested on: NCI-H226
HCC 2998 = tested on: HCC 2998
HOP-62 = tested on: HOP-62
T47D = tested on: T47D
BT-549 = tested on: BT-549

Measured: GI50

C[C@]12C(=O)C=CCC1=CC[C@@H]1[C@@H]2[C@H]2CC3(O)C(=O)O[C@@]4(C)[C@H]5C[C@@]6(C)[C@@H]7[C@@]2(O)[C@]1(OC[C@H]6C(=O)O5)O[C@]734 (stereo not given in full)
inactive: SNB-75 54.7 µM | U-251 34.6 µM | MDA-MB-231 43.7 µM | SF-268 37.1 µM | DU-145 58.2 µM | UACC-257 59.4 µM | MDA-N 37.9 µM | HT-29 40.1 µM | UO-31 > 100 µM | K562 38.2 µM | A549 > 100 µM | OVCAR-5 29 µM | RXF 393 20.2 µM | KM12 30.5 µM | COLO 205 39.6 µM | SR 28.4 µM | SW-620 35.2 µM | OVCAR-4 54.3 µM | NCI-H522 14.3 µM | RPMI-8226 34.8 µM | TK-10 93.8 µM | NCI-H460 35.8 µM | SK-MEL-28 28.4 µM | EKVX 43.9 µM | SF-539 17.7 µM | Malme-3M 74.8 µM | NCI-H23 24.2 µM | MDA-MB-435 36.6 µM | HL-60 17.5 µM | CCRF-CEM 20.8 µM | SK-MEL-2 23 µM | SF-295 57.4 µM | Hs-578T 51.1 µM | SNB-19 62.4 µM | M14 28.8 µM | ACHN 61.9 µM | SN12C 30.1 µM | LOX IMVI 27.4 µM | HOP-92 68.4 µM | NCI/ADR-RES > 100 µM | MOLT-4 23.2 µM | HCT-116 31.8 µM | PC-3 41.9 µM | UACC-62 26.4 µM | OVCAR-8 28.4 µM | MCF7 31.7 µM | 786-0 34.5 µM | IGROV-1 40.1 µM | SK-MEL-5 50 µM | A498 54.6 µM | CAKI-1 40.7 µM
53.7 µM: HCT-15

CCOC(CNc1nn2c(C)nnc2s1)OCC
inactive: SNB-75 > 100 µM | U-251 > 100 µM | MDA-MB-231 > 100 µM | SF-268 > 100 µM | DU-145 > 100 µM | UACC-257 > 100 µM | MDA-N > 100 µM | HT-29 > 100 µM | K562 > 100 µM | A549 > 100 µM | OVCAR-5 > 100 µM | RXF 393 > 100 µM | OVCAR-3 > 100 µM | KM12 > 100 µM | SK-OV-3 > 100 µM | COLO 205 > 100 µM | SR > 100 µM | SW-620 > 100 µM | OVCAR-4 > 100 µM | NCI-H522 > 100 µM | RPMI-8226 > 100 µM | TK-10 > 100 µM | NCI-H460 > 100 µM | SK-MEL-28 > 100 µM | EKVX > 100 µM | SF-539 > 100 µM | Malme-3M > 100 µM | NCI-H23 > 100 µM | MDA-MB-435 > 100 µM | HL-60 > 100 µM | CCRF-CEM > 100 µM | SK-MEL-2 > 100 µM | SF-295 > 100 µM | Hs-578T > 100 µM | SNB-19 > 100 µM | M14 > 100 µM | ACHN > 100 µM | SN12C > 100 µM | LOX IMVI > 100 µM | NCI-H226 > 100 µM | HOP-92 > 100 µM | NCI/ADR-RES > 100 µM | HCC 2998 > 100 µM | MOLT-4 > 100 µM | HCT-116 > 100 µM | PC-3 > 100 µM | UACC-62 > 100 µM | OVCAR-8 > 100 µM | MCF7 > 100 µM | 786-0 > 100 µM | IGROV-1 > 100 µM | SK-MEL-5 > 100 µM | A498 > 100 µM | CAKI-1 > 100 µM | HOP-62 > 100 µM
> 100 µM: HCT-15

COc1cc(N/N=C/C#N)cc(OC)c1OC
inactive: SNB-75 9.16 µM | U-251 > 10 µM | MDA-MB-231 > 10 µM | SF-268 > 10 µM | DU-145 > 10 µM | MDA-N > 10 µM | HT-29 > 10 µM | UO-31 > 10 µM | K562 2.44 µM | A549 > 10 µM | OVCAR-5 > 10 µM | RXF 393 > 10 µM | OVCAR-3 > 10 µM | KM12 > 10 µM | SK-OV-3 > 10 µM | COLO 205 4.86 µM | SR 2.96 µM | SW-620 8.28 µM | OVCAR-4 > 10 µM | RPMI-8226 2.16 µM | TK-10 > 10 µM | NCI-H460 > 10 µM | SK-MEL-28 > 10 µM | EKVX > 10 µM | SF-539 > 10 µM | Malme-3M 7.55 µM | NCI-H23 4.34 µM | MDA-MB-435 > 10 µM | HL-60 2.12 µM | CCRF-CEM 3.28 µM | SK-MEL-2 > 10 µM | SF-295 > 10 µM | Hs-578T > 10 µM | SNB-19 > 10 µM | M14 > 10 µM | ACHN 4.86 µM | SN12C > 10 µM | LOX IMVI 1.54 µM | NCI-H226 > 10 µM | T47D 4.65 µM | NCI/ADR-RES > 10 µM | HCC 2998 > 10 µM | MOLT-4 2.92 µM | HCT-116 > 10 µM | PC-3 > 10 µM | UACC-62 > 10 µM | OVCAR-8 > 10 µM | MCF7 5.87 µM | IGROV-1 > 10 µM | SK-MEL-5 > 10 µM | A498 > 10 µM | CAKI-1 4.07 µM | HOP-62 > 10 µM
active: NCI-H522 1.01 µM
> 10 µM: HCT-15

CC1CNC(NS(=O)(=O)c2cc(C(=O)Nc3ccc(F)cc3)c(Cl)cc2S)=NN1 (stereo not given)
37.8 µM: HCT-15
inactive: U-251 48.4 µM | MDA-MB-231 82.2 µM | SF-268 50.4 µM | DU-145 > 100 µM | BT-549 > 100 µM | UACC-257 > 100 µM | HT-29 51.4 µM | UO-31 > 100 µM | K562 32.8 µM | A549 49.4 µM | OVCAR-5 59.7 µM | OVCAR-3 92.9 µM | KM12 49.3 µM | SK-OV-3 > 100 µM | COLO 205 62.4 µM | SR 43.5 µM | SW-620 45.3 µM | OVCAR-4 > 100 µM | NCI-H522 33.3 µM | RPMI-8226 34.9 µM | TK-10 > 100 µM | NCI-H460 78.5 µM | SK-MEL-28 56.2 µM | EKVX > 100 µM | SF-539 39.5 µM | Malme-3M 29.1 µM | NCI-H23 50.4 µM | MDA-MB-435 35.7 µM | HL-60 > 100 µM | CCRF-CEM 42.5 µM | SK-MEL-2 28.3 µM | SF-295 66.5 µM | SNB-19 87.1 µM | M14 42.3 µM | ACHN 77.4 µM | SN12C > 100 µM | LOX IMVI 54.5 µM | NCI-H226 36.4 µM | NCI/ADR-RES > 100 µM | HCC 2998 40.5 µM | MOLT-4 59.3 µM | HCT-116 37.7 µM | PC-3 30.3 µM | UACC-62 57.3 µM | OVCAR-8 73.8 µM | MCF7 41 µM | 786-0 > 100 µM | IGROV-1 71 µM | SK-MEL-5 26.2 µM | A498 17.2 µM | CAKI-1 > 100 µM | HOP-62 75.7 µM

COC(C)(C)[C@@H](O)[C@H](O)C[C@H](C)C1=C2CC[C@@H]3[C@@]4(C)CC[C@@H](OC(C)=O)C(C)(C)[C@@H]4C[C@@H](OC4OC(COC(C)=O)C(O)C(O)C4O)[C@@]3(C)[C@]2(C)CC1 (stereo not given in full)
inactive: SNB-75 8.79 µM | U-251 10.7 µM | SK-OV-3 15.3 µM

COC1=CC(=O)c2c(O)c3c(c(O)c2C1=O)OC1(Oc2c(cc4cc(C)oc(=O)c4c2O)CC1O)C3O (stereo not given)
29 µM: HCT-15
inactive: SNB-75 60.4 µM | U-251 39.9 µM | MDA-MB-231 24 µM | SF-268 61 µM | DU-145 33.8 µM | UACC-257 40.6 µM | MDA-N 20.8 µM | HT-29 48.4 µM | UO-31 55.7 µM | K562 42.8 µM | A549 45.2 µM | OVCAR-5 32.7 µM | OVCAR-3 67.1 µM | KM12 29.9 µM | SK-OV-3 77.1 µM | COLO 205 32.8 µM | SR > 100 µM | SW-620 53.7 µM | OVCAR-4 27.8 µM | NCI-H522 25.1 µM | RPMI-8226 29.4 µM | TK-10 50.9 µM | NCI-H460 27.4 µM | SK-MEL-28 46.5 µM | EKVX 24.9 µM | SF-539 44.5 µM | Malme-3M 2.14 µM | NCI-H23 35.6 µM | MDA-MB-435 33.7 µM | HL-60 33.3 µM | CCRF-CEM 30.1 µM | SK-MEL-2 39.7 µM | SF-295 41.6 µM | Hs-578T 91.8 µM | SNB-19 20.9 µM | M14 42.5 µM | ACHN 41.3 µM | SN12C 23.5 µM | LOX IMVI 30.1 µM | T47D 38.1 µM | HOP-92 > 100 µM | NCI/ADR-RES 46.9 µM | HCC 2998 28.9 µM | MOLT-4 23.3 µM | HCT-116 35.6 µM | PC-3 38.4 µM | UACC-62 32.7 µM | OVCAR-8 40.4 µM | MCF7 43.9 µM | 786-0 40 µM | IGROV-1 25.8 µM | SK-MEL-5 26.6 µM | A498 47.9 µM | CAKI-1 21.7 µM | HOP-62 35.2 µM
